Test results reported in patent publication US20170313674A1, “BENZYLHYDROXIDE DERIVATIVES, PREPARATION THEREOF AND THERAPEUTIC USE THEREOF” (SANOFI, priority 2014, published 2017).
pIC50: −log10 of the molar value. Where two headings read alike, the source gives them in different places.

How the values were obtained:
[1] = test system: mitochondrial ATP production on non-small cell lung carcinoma cell lines NCI-H460; test: Mitochondrial ATP analysis (Cell Titer Glo) in NCI-H460 cells; format: cell-based; conditions: 1-hour incubation, with sodium iodoacetate (100 μM), concentration inhibiting 50% of mitochondrial ATP production, read-out: IC50 (mito ATP)
Procedure: In order to evaluate the inhibitory activity of the all compounds, an in vitro assay was developed which read out is directly linked to mitochondrial complex 1 inhibition. Since mitochondrial complex 1 contributes to the formation of membrane potential coupled to the mitochondrial ATP synthesis, complex 1 inhibition directly leads in cells to the inhibition of mitochondrial ATP production. Cellular ATP contents were measured in presence of either glycolysis inhibitor (sodium iodocetate) and/or mitochondrial inhibitors (F0F1-ATPase inhibitor: oligomycin or mitochondrial uncoupler: FCCP) to determine the ATP production part relying either on glycolytic or on mitochondrial metabolism.
Mitochondrial ATP Analysis
The compounds of the invention were evaluated for their ability to inhibit mitochondrial
ATP was measured using the Promega Cell Titer Glo kit and protocol. In summary, 1,000 cells were plated in 40 μL in a 384 well plate. 24 hours later, medium was replaced by 20 μl culture medium in presence of compounds: cells were treated in replicates of five with control (PBS), oligomycin A (10 μg/ml), FCCP (30 μM), or the compounds of the invention in dose effect both alone or in combination with sodium iodoacetate (100 μM). Following a 1-hour incubation, 20 μL of CellTtiter-glo™ reaction mix were added to each well for a final volume of 40 μL. Plates were then analyzed for luminescence with a Perkin Elmer EnVision. By comparing the different conditions, global ATP and percentages of both glycolytic and mitochondrial ATP were determined.
The mitochondrial ATP production was calculated as the remaining ATP under iodoacetate treatment minus basal ATP (ATP content under iodoacetate and oligomycin treatment). Inhibitory activity of the compounds on mitochondrial ATP in NCI-H460 cells is expressed as the concentration needed to inhibit 50% of mitochondrial ATP production (IC50, M).

HIF-1a = test: Western blot model: HIF1-a stabilization in Hep3b cells under hypoxia; format: cell-based; conditions: hypoxia 1% O2, 6 hours; for Western Blot (range of decrease of HIF1-a stabilization): class symbol
Procedure: Since it was sought to determine the efficacy of the compounds to inhibit HIF1a stabilization under hypoxia, the compounds according to the invention underwent biochemical studies in order to determine their capacity to decrease HIF stabilization in Hep3b cells under hypoxia (western blot model).
Hep3B cells are seeded at a rate of 300000 cells per well in 6-wells culture plate in 2 ml of MEM supplemented with glutamin (2 mM) and 10% FCS (foetal calf serum) and incubated at 37° C. in the presence of 5% CO2. The next day, the cells are placed in contact with the compound and an incubation under hypoxia at 1% O2 is carried out at 37° C. in 95% humidity and 5% CO2 in a sealed anaerobic workstation (Hypoxystation H35-Don Whitley—AES Chemunex) during 6 hours.
Cells were washed (PBS) and lysed in SDS sample buffer. Proteins (25 μg) were separated on 4-12% Bis-Tris gels and transferred onto polyvinylidene difluoride membranes (Millipore). Membranes were blotted with a mouse monoclonal antibody to HIF-1a (BD transduction) and a mouse monoclonal anti-βactin (Sigma). Immunoreactive bands were detected with a horse radish peroxydase (HRP) anti-mouse antibody (Sigma) by enhanced chemiluminescence (Promega).
The inhibitory activity of the compounds for their capacity to decrease HIF1-a stabilization in Hep3b under hypoxia is expressed as range of percentage relative to control with: […]

SMILES	pIC50 ([1]; Homo sapiens, NCI-H460, 1 h)	Western Blot (decrease of HIF1-a stabilization, percentage relative to control) (HIF-1a) [%]	Western Blot (range of decrease of HIF1-a stabilization) (HIF-1a)	pIC50 [1]
COc1ccc(C(O)C(C)(C)Oc2ccc(-c3nc(-c4ccc(OC(C)(C)C(O)c5ccc(OC)c(OC)c5)cc4)c(C)o3)cc2)cc1OC (single isomer, unassigned) [Compound I-3, 1-(3,4-dimethoxyphenyl)-2-[4-[2-[4-[2-(3,4-dimethoxyphenyl)-2-hydroxy-1,1-dimethyl-ethoxy]phenyl]-5-methyl-oxazol-4-yl]phenoxy]-2-methyl-propan-1-ol]	8.05	70	*** (*** represents a decrease of HIF-a stabilization higher than 70%)	–
COc1ccc(C(O)C(C)(C)Oc2ccc(-c3nc(-c4ccc(OC(C)(C)C(O)c5ccc(OC)c(OC)c5)cc4)c(C)o3)cc2)cc1OC (single isomer, unassigned) [Compound I-4, 1-(3,4-dimethoxyphenyl)-2-[4-[2-[4-[2-(3,4-dimethoxyphenyl)-2-hydroxy-1,1-dimethyl-ethoxy]phenyl]-5-methyl-oxazol-4-yl]phenoxy]-2-methyl-propan-1-ol]	–	72	*** (*** represents a decrease of HIF-a stabilization higher than 70%)	7.92
COc1ccc(C(O)C(C)(C)Oc2ccc(-c3nc(-c4ccc(OC(C)(C)C(O)c5ccc(OC)c(OC)c5)cc4)c(C)s3)cc2)cc1OC (single isomer, unassigned) [Compound I-8, 1-(3,4-dimethoxyphenyl)-2-[4-[2-[4-[2-(3,4-dimethoxyphenyl)-2-hydroxy-1,1-dimethyl-ethoxy]phenyl]-5-methyl-thiazol-4-yl]phenoxy]-2-methyl-propan-1-ol]	–	47	* (* represents a decrease of HIF-a stabilization between 30 to 50%)	8.69
COc1ccc(C(O)C(C)(C)Oc2ccc(-c3nc(-c4ccc(OC(C)(C)C(O)c5ccc(OC)c(OC)c5)cc4)c(C)s3)cc2)cc1OC (single isomer, unassigned) [Compound I-9, 1-(3,4-dimethoxyphenyl)-2-[4-[2-[4-[2-(3,4-dimethoxyphenyl)-2-hydroxy-1,1-dimethyl-ethoxy]phenyl]-5-methyl-thiazol-4-yl]phenoxy]-2-methyl-propan-1-ol]	8.41	58.5	** (** represents a decrease of HIF-a stabilization between 50 to 70%)	–
COc1ccc(C(O)COc2ccc(-c3nc(-c4ccc(OCC(O)c5ccc(OC)c(OC)c5)cc4)c(C)s3)cc2)cc1OC (single isomer, unassigned) [Compound I-10, 1-(3,4-dimethoxyphenyl)-2-[4-[2-[4-[2-(3,4-dimethoxyphenyl)-2-hydroxy-ethoxy]phenyl]-5-methyl-thiazol-4-yl]phenoxy]ethanol]	–	62	** (** represents a decrease of HIF-a stabilization between 50 to 70%)	6.84
COc1ccc(C(O)COc2ccc(-c3nc(-c4ccc(OCC(O)c5ccc(OC)c(OC)c5)cc4)c(C)s3)cc2)cc1OC (single isomer, unassigned) [Compound I-11, 1-(3,4-dimethoxyphenyl)-2-[4-[2-[4-[2-(3,4-dimethoxyphenyl)-2-hydroxy-ethoxy]phenyl]-5-methyl-thiazol-4-yl]phenoxy]ethanol]	–	65	** (** represents a decrease of HIF-a stabilization between 50 to 70%)	6.25
COc1ccc(C(O)COc2ccc(-c3coc(-c4ccc(OCC(O)c5ccc(OC)c(OC)c5)cc4)n3)cc2)cc1OC (single isomer, unassigned) [Compound I-13, 1-(3,4-dimethoxyphenyl)-2-[4-[2-[4-[2-(3,4-dimethoxyphenyl)-2-hydroxy-ethoxy]phenyl]oxazol-4-yl]phenoxy]ethanol]	–	51	** (** represents a decrease of HIF-a stabilization between 50 to 70%)	7.16
COc1ccc(C(O)COc2ccc(-c3coc(-c4ccc(OCC(O)c5ccc(OC)c(OC)c5)cc4)n3)cc2)cc1OC (single isomer, unassigned) [Compound I-14, 1-(3,4-dimethoxyphenyl)-2-[4-[2-[4-[2-(3,4-dimethoxyphenyl)-2-hydroxy-ethoxy]phenyl]oxazol-4-yl]phenoxy]ethanol]	–	59	** (** represents a decrease of HIF-a stabilization between 50 to 70%)	6.17
COc1ccc(C(O)C(C)(C)Oc2ccc(-c3coc(-c4ccc(OC(C)(C)C(O)c5ccc(OC)c(OC)c5)cc4)n3)cc2)cc1OC (single isomer, unassigned) [Compound I-18, 1-(3,4-dimethoxyphenyl)-2-[4-[2-[4-[2-(3,4-dimethoxyphenyl)-2-hydroxy-1,1-dimethyl-ethoxy]phenyl]oxazol-4-yl]phenoxy]-2-methyl-propan-1-ol]	–	71	*** (*** represents a decrease of HIF-a stabilization higher than 70%)	7.20
COc1ccc(C(O)C(C)(C)Oc2ccc(-c3coc(-c4ccc(OC(C)(C)C(O)c5ccc(OC)c(OC)c5)cc4)n3)cc2)cc1OC (single isomer, unassigned) [Compound I-19, 1-(3,4-dimethoxyphenyl)-2-[4-[2-[4-[2-(3,4-dimethoxyphenyl)-2-hydroxy-1,1-dimethyl-ethoxy]phenyl]oxazol-4-yl]phenoxy]-2-methyl-propan-1-ol]	–	56	** (** represents a decrease of HIF-a stabilization between 50 to 70%)	6.61
COc1cc(C(O)COc2ccc(-c3coc(-c4ccc(OCC(O)c5cc(OC)c(OC)c(OC)c5)cc4)n3)cc2)cc(OC)c1OC (single isomer, unassigned) [Compound I-21, 2-[4-[2-[4-[2-hydroxy-2-(3,4,5-trimethoxyphenyl)ethoxy]phenyl]oxazol-4-yl]phenoxy]-1-(3,4,5-trimethoxyphenyl)ethanol]	–	52	** (** represents a decrease of HIF-a stabilization between 50 to 70%)	5.58
COc1cc(C(O)COc2ccc(-c3coc(-c4ccc(OCC(O)c5cc(OC)c(OC)c(OC)c5)cc4)n3)cc2)cc(OC)c1OC (single isomer, unassigned) [Compound I-22, 2-[4-[2-[4-[2-hydroxy-2-(3,4,5-trimethoxyphenyl)ethoxy]phenyl]oxazol-4-yl]phenoxy]-1-(3,4,5-trimethoxyphenyl)ethanol]	–	57	** (** represents a decrease of HIF-a stabilization between 50 to 70%)	5.89
COc1ccc(C(O)COc2ccc(-c3csc(-c4ccc(OCC(O)c5ccc(OC)c(OC)c5)cc4)n3)cc2)cc1OC (single isomer, unassigned) [Compound I-24, 1-(3,4-dimethoxyphenyl)-2-[4-[2-[4-[2-(3,4-dimethoxyphenyl)-2-hydroxy-ethoxy]phenyl]thiazol-4-yl]phenoxy]ethanol]	–	49	* (* represents a decrease of HIF-a stabilization between 30 to 50%)	6.60
